Some test systems named below: 786-0 renal; CAKI-1 renal; IGROV1 ovarian; M14 melanoma; MALME-3M melanoma; MDA-MB-231 breast; OVCAR-5 ovarian; SK-MEL-5 melanoma; UACC-257 melanoma; RPMI-8226 leukemia.
Assay in all cases: growth of human tumour cells (NCI), 48 h

The source of these data is PubChem BioAssay (NCI).

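Protocol summary: plate cells (96-well), add compound at 5 concentrations, incubate 48 h, interpolate endpoints linearly. GI50 marks 50% less growth. TGI: concentration producing complete growth inhibition.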

As to `C=C1C(=O)OC2CC1C(OC(=O)/C=C/c1ccccc1)C/C(C)=C/CC/C(C)=C/CCC2(C)O` (centres undefined), the TGI with 786-0 renal turned out to be 2.31 µM; in the test with CAKI-1 renal it was 2.78 µM; with IGROV1 ovarian, 3.07 µM; in the test on M14 melanoma, 3.14 µM; with MALME-3M melanoma it was 4.02 µM; in the test on MDA-MB-231 breast it was 5.39 µM. The TGI in the test with OVCAR-5 ovarian was 3.19 µM; with SK-MEL-5 melanoma it was 3.68 µM; with UACC-257 melanoma, 3.79 µM.

`O=C(c1ccc(Cl)cc1Cl)N1CCN(C(=O)c2ccc(Cl)cc2Cl)C1=S`: the GI50 in the test with 786-0 renal is 18.6 µM; with CAKI-1 renal it was 22.1 µM; with IGROV1 ovarian, 21 µM; with M14 melanoma it was 16.3 µM; with MALME-3M melanoma, 25.4 µM; in the test with MDA-MB-231 breast, 19.1 µM. Also, the GI50 in the test on OVCAR-5 ovarian is 21.6 µM; in the test with UACC-257 melanoma it was 28.2 µM. Further, the TGI in the test with 786-0 renal turned out to be 42.3 µM; with CAKI-1 renal it was 52.1 µM; in the test on IGROV1 ovarian it was 46 µM; with M14 melanoma it was 30.2 µM; in the test on MALME-3M melanoma, 62.7 µM; in the test on MDA-MB-231 breast it was 38.7 µM. In addition, the TGI in the test on OVCAR-5 ovarian was 60.4 µM; in the test with RPMI-8226 leukemia, 30.7 µM; in the test on UACC-257 melanoma it was 63.4 µM.

In the case of `O=[N+]([O-])c1ccccc1/C=N\NC(=S)N/N=C/c1ccccc1[N+](=O)[O-]`, the GI50 in the test on 786-0 renal was 38 µM; with CAKI-1 renal it was 3.46 µM; in the test on IGROV1 ovarian it was 3.67 µM; in the test with M14 melanoma, 3.76 µM; in the test with MDA-MB-231 breast, 37.8 µM; with OVCAR-5 ovarian, 51 µM. The GI50 in the test with RPMI-8226 leukemia is 5.91 µM; in the test with SK-MEL-5 melanoma, 4.21 µM; in the test on UACC-257 melanoma, 10.3 µM. Moreover, the TGI with 786-0 renal, in the test with CAKI-1 renal, in the test on IGROV1 ovarian, with M14 melanoma, with MDA-MB-231 breast and in the test with OVCAR-5 ovarian was over 100 µM each time. Further, the TGI with RPMI-8226 leukemia, in the test on SK-MEL-5 melanoma and in the test on UACC-257 melanoma was over 100 µM each time.

Turning to `COC(=O)NC1(NC(=O)OC)NC(=O)c2ccccc2N1`, the TGI in the test with 786-0 renal, in the test on CAKI-1 renal, in the test with IGROV1 ovarian, with M14 melanoma, in the test with MALME-3M melanoma and with MDA-MB-231 breast was over 100 µM throughout. Besides, the TGI with OVCAR-5 ovarian, in the test with SK-MEL-5 melanoma and with UACC-257 melanoma was over 100 µM in each case.

As for `CN(C)CCNC(=O)c1ccc2c(c1)oc1cc3ccccc3c(=O)n12`, the GI50 in the test with 786-0 renal is 18.2 µM; in the test on CAKI-1 renal, 10.8 µM; with IGROV1 ovarian, 10.6 µM; in the test on M14 melanoma it was 18.6 µM; in the test with MALME-3M melanoma, 23.4 µM; with MDA-MB-231 breast, 13 µM. For the same molecule, the GI50 with RPMI-8226 leukemia is 31 µM; with SK-MEL-5 melanoma, 23.3 µM; in the test on UACC-257 melanoma, 21.7 µM. The TGI was found to be 33.1 µM in the test with 786-0 renal; 25.4 µM with CAKI-1 renal; 26.4 µM with IGROV1 ovarian; 32.6 µM in the test with M14 melanoma; 43.7 µM with MALME-3M melanoma; 27.9 µM in the test with MDA-MB-231 breast. For the same molecule, the TGI is over 100 µM with RPMI-8226 leukemia, 39.9 µM in the test on SK-MEL-5 melanoma and 37.5 µM in the test with UACC-257 melanoma.

As for `O=C(O)CCCN1C(=O)/C(=C/C(Cl)=C/c2ccccc2)SC1=S`, the GI50 was 2.33 µM in the test with 786-0 renal; 1.66 µM in the test on CAKI-1 renal; 2.07 µM with IGROV1 ovarian; 1.81 µM in the test on M14 melanoma; 2.09 µM in the test on MALME-3M melanoma; 3.17 µM with MDA-MB-231 breast. Also, the GI50 in the test on OVCAR-5 ovarian was 2.48 µM; with SK-MEL-5 melanoma, 1.72 µM; in the test on UACC-257 melanoma, 1.75 µM. Further, the TGI in the test on 786-0 renal turned out to be 6.39 µM; with CAKI-1 renal it was 3.76 µM; in the test on IGROV1 ovarian, 6.04 µM; in the test on M14 melanoma, 5.12 µM; in the test with MALME-3M melanoma, 5.24 µM; with MDA-MB-231 breast it was 10.7 µM. Also, the values for the TGI in the test with OVCAR-5 ovarian, with SK-MEL-5 melanoma and in the test with UACC-257 melanoma were 5.78 µM, 3.16 µM and 6.8 µM, respectively.

With `COc1ccc(-c2nc(NC(=O)CS(=O)(=O)c3ccc(F)cc3)sc2C)cc1`, the GI50 in the test on 786-0 renal was 23 µM; in the test on CAKI-1 renal it was 24.2 µM; in the test with IGROV1 ovarian, 28.2 µM; in the test on M14 melanoma it was 19.1 µM; in the test on MALME-3M melanoma it was 23 µM; in the test with MDA-MB-231 breast, 23.2 µM. For the same molecule, the figures for the GI50 in the test on OVCAR-5 ovarian, with RPMI-8226 leukemia and in the test with SK-MEL-5 melanoma were 36 µM, 17.6 µM and 12.8 µM, respectively. For the same molecule, the TGI in the test with 786-0 renal was 61.3 µM; in the test with CAKI-1 renal it was over 100 µM; in the test on IGROV1 ovarian it was over 100 µM; in the test on M14 melanoma, 55.7 µM; in the test with MALME-3M melanoma, 66.4 µM; in the test with MDA-MB-231 breast, over 100 µM. Moreover, the values for the TGI in the test on OVCAR-5 ovarian, with RPMI-8226 leukemia and in the test on SK-MEL-5 melanoma were over 100 µM, 56.5 µM and 25.9 µM, respectively.

As for `CC(C)(C)OC(=O)NCCCCCCCCCn1c2c(c3ccccc3c1=O)C(=O)c1ccccc1-2`, the GI50 in the test with 786-0 renal was 17.5 µM; in the test with IGROV1 ovarian it was 36.1 µM; in the test on M14 melanoma, over 100 µM; in the test with MALME-3M melanoma, 13.9 µM; in the test on MDA-MB-231 breast it was 31.7 µM; in the test on OVCAR-5 ovarian, over 100 µM. The GI50 with RPMI-8226 leukemia, in the test on SK-MEL-5 melanoma and in the test with UACC-257 melanoma was over 100 µM throughout. Moreover, the TGI in the test on 786-0 renal is 76.9 µM; in the test on IGROV1 ovarian, over 100 µM; in the test on M14 melanoma, over 100 µM; in the test with MALME-3M melanoma, 43 µM; with MDA-MB-231 breast, over 100 µM; in the test on OVCAR-5 ovarian, over 100 µM. Also, the TGI with RPMI-8226 leukemia, in the test with SK-MEL-5 melanoma and in the test with UACC-257 melanoma was over 100 µM in each case.

On to `CC1(Cl)C(=O)NC(=O)N([C@H]2C[C@H](O)[C@@H](CO)O2)C1N=[N+]=[N-]` (some centres undefined), for which the TGI in the test with 786-0 renal, in the test on CAKI-1 renal, with IGROV1 ovarian, in the test on M14 melanoma, in the test with MALME-3M melanoma and in the test on OVCAR-5 ovarian was over 100 µM throughout. Besides, the TGI with RPMI-8226 leukemia, in the test on SK-MEL-5 melanoma and in the test on UACC-257 melanoma was over 100 µM throughout.
